Laboratory results: patent publication US7192940B2, “Ether compounds” (Esperion Therapeutics, Inc., priority 1999, dated 2007)

Tests used:
primary rat hepatocytes = experiment: Synthesis of non-saponified and saponified lipids (14C-acetate incorporation) in hepatocytes; assay type: cell-based; conditions: 100 μM; 2 hr 14C-acetate labeling; vs no compound control
Protocol: A male Sprague-Dawley rat was anesthetized by administration of sodium pentobarbitol by intraparitoneal injection at 50 mg/kg. In situ perfusion of the liver was performed as follows. […] To digest the liver, DSC solution (6.7 mM KCl, 143 mM NaCl, 9.2 mM Na HEPES, 5 mM CaCl2—2H2O, 1.7 mM Fructose, 0.029 mM Phenol red, 0.2% BSA, 100 U/ml collagenase Type I, 93 U/ml Hyaluronidase, 160 BAEE/ml trypsin inhibitor, pH 7.5) was perfused through the liver at a flow rate of 30 ml/min for 6 minutes at a temperature of 37° C. After digestion, cells were dispersed in a solution of DMEM− (DMEM containing 2 mM GlutMax-1, 0.2% BSA, 5% FBS, 12 nM insulin, 1.2 μM hydrocortisone) to stop the digestion process. The crude cell suspension was filtered through three layers of stainless steel mesh with pore sizes of 250, 106, and 75 μm respectively. Filtered cells were centrifuged at 50×g for two minutes and the supernatant discarded. The resulting cell pellet was resuspended in DMEM and centrifuged again. This final cell pellet was resuspended in DMEM+HS solution (DMEM containing 2 mM GlutMax-1, 20 nM delta-aminolevulinic acid, 17.4 mM MEM non-essential amino acids, 20% FBS, 12 nM insulin, 1.2 μM hydrocortisone) and plated to form monolayer cultures at a density of 100×10^3 cells/cm^2 on collagen coated culture dishes. […]

male Sprague-Dawley rats = experiment: Serum lipids, apolipoproteins and weight gain in chow-fed male Sprague-Dawley rats after seven days of oral treatment; assay type: in vivo, rat; conditions: 100 mg/kg, 7 days, vs vehicle
Protocol: Illustrative compounds of the invention were administered daily at a dose of 100 mg/kg to chow fed male Sprague-Dawley rats for seven days in the morning by oral gavage in 1.5% carboxymethylcellulose/0.2% Tween-20 (dosing vehicle). Animals were weighed daily. Animals were allowed free access to rodent chow and water throughout the study. After the seventh dose, animals were sacrificed in the evening and blood serum was assayed for lipoprotein cholesterol profiles, serum triglycerides, total cholesterol VLDL, LDL, and HDL cholesterol, and the ratio of HDL cholesterol to that of VLDL plus LDL cholesterol, apolipoproteins A-I, C-II, C-III, and E by immunoelectrophoresis, and percent weight gain.
The five compounds were tested in two separate experiments. In each experiment, the experimental data were normalized against a control group of rats which received the dosing vehicle alone.

obese female Zucker rats [1] = experiment: Experiment A: serum lipids, glucose, non-esterified fatty acids and weight gain in obese female Zucker rats after seven days of oral treatment; assay type: in vivo, rat; conditions: vehicle 6.6%
Protocol: Dosing vehicle, Compound A (86 mg/kg of body weight) or troglitazone (120 mg/kg of body weight) was administered to eight week old female obese Zucker rats daily for seven days in the morning by oral gavage in 1.5% carboxymethylcellulose/0.2% Tween-20. Troglitazone was obtained commercially. Finely crushed tablets were suspended in vehicle for dosing. Orbital blood samples were obtained following a six-hour fast prior to the initial dose and also following the seventh dose.
Blood serum was assayed for total cholesterol and triglycerides (FIG. 5), lipoprotein cholesterol profiles (FIG. 6), VLDL plus LDL cholesterol combined (also referred to as apo B containing lipoprotein cholesterol or non-HDL cholesterol), HDL cholesterol, and the ratio of HDL cholesterol to that of VLDL plus LDL cholesterol (FIG. 7), serum glucose, and non-esterified fatty acids (FIG. 8), and percent weight gain (FIG. 9). […] In particular, Compound A caused a marked elevation in HDL cholesterol after one week of treatment. Using the serum total cholesterol values (FIG. 5A) and the lipoprotein cholesterol distribution (FIG. 6), the amount of cholesterol associated with non-HDL (i.e., VLDL plus LDL) and HDL were determined (FIG. 7). […] In contrast, troglitazone reduced non-HDL and HDL cholesterol by 67% and 4%, respectively.

obese female Zucker rats [2] = experiment: Experiments B, C, D & E: serum lipids, glucose, insulin, body and liver weight in obese female Zucker rats treated for 14 days; assay type: in vivo, rat; conditions: Experiment C
Protocol: In a number of different experiments, illustrative compounds of the invention and troglitazone were administered daily at various doses to 10-week old chow fed obese female Zucker rats for 14 days in the morning by oral gavage in 1.5% carboxymethylcellulose/0.2% Tween-20 (dosing vehicle). Animals were weighed daily. Animals were allowed free access to rodent chow and water throughout the study. Blood glucose was determined after a 6-hour fast in the afternoon without anesthesia from a tail vein. Serum was also prepared from a blood sample subsequently obtained from the orbital venous plexus (with O2/CO2 anesthesia) prior to and after one week treatment and used lipid and insulin determinations. At two weeks, blood glucose was again determined after a 6-hour fast without anesthesia from a tail vein. Soon thereafter, animals were sacrificed by CO2 inhalation in the evening and cardiac blood serum was collected and assessed for various lipids and insulin. Body weight was determined daily prior to dosing and at the time of euthanasia.

[3] = test system: LDL receptor deficient mice; experiment: Lipoprotein cholesterol profile in LDL receptor-deficient mice; assay type: in vivo; conditions: 300 mg/kg/day; one week; chow-fed female mice
Source text: The effect of Compound A on LDL levels in a murine model of homozygous familial hypercholesterolemia (Ishibashi et al., 1993, J. Clin. Invest. 92:883–893; Ishibashi et al., 1994, J. Clin. Invest. 93:1885–1893) was studied. LDL receptor-deficient mice have elevated LDL cholesterol relative to wild type mice when fed a chow diet. When fed cholesterol-enriched diets, these mice develop atherosclerosis.

Compound: CC(C)(O)CCCCOCCCCC(C)(C)O [Compound F, 6-(5-hydroxy-5-methyl-hexyloxy)-2-methyl-hexan-2-ol]
- rates of saponified fatty acid synthesis (primary rat hepatocytes): reduced

Compound: CC(C)(CCCOCCCC(C)(C)OP(=O)(OCc1ccccc1)OCc1ccccc1)OP(=O)(OCc1ccccc1)OCc1ccccc1 [Compound E, phosphoric acid dibenzyl ester 4-(4-(bis-benzyloxy-phosphoryloxy)-4-methyl-pentyloxy)-1,1-dimethyl-butyl ester]
- rates of saponified fatty acid synthesis (primary rat hepatocytes): reduced

Compound: CC(C)(CO)CCCCOCCCCC(C)(C)CO [Compound A, 6-(6-hydroxy-5,5-dimethylhexyloxy)-2,2-dimethyl-hexan-1-ol]
- change in VLDL cholesterol (male Sprague-Dawley rats): no change
- increase in body weight (obese female Zucker rats [1]; 86 mg/kg): 5.4%
- glucose to insulin ratio (obese female Zucker rats [2]; 100 mg/kg): reduced
- blood glucose (obese female Zucker rats [2]; 100 mg/kg, fasted): tendency to lower blood glucose
- decline of glucose to insulin ratio (obese female Zucker rats [2]; 1 and 3 mg/kg, over two weeks (same as control)): ⅓ to ½
- weight gain (obese female Zucker rats [2]; 10, 30 and 100 mg/kg, after one and two weeks): markedly reduced
- glucose to insulin ratio (obese female Zucker rats [2]; 10 and 30 mg/kg): sustained at pretreatment levels
- sharp rise in serum insulin (obese female Zucker rats [2]; higher doses (above 3 mg/kg)): largely curtailed or minimized
- HDL [3]: HDL elevation
- LDL cholesterol [3]: rapid and significant reduction

Compound: Cc1c(C)c2c(c(C)c1O)CCC(C)(COc1ccc(CC3SC(=O)NC3=O)cc1)O2 (stereo not drawn) [troglitazone, reference compound]
- weight gain (obese female Zucker rats [1]; 120 mg/kg): +11.6%
- weight gain (obese female Zucker rats [2]; after two weeks at 12, 40 and 120 mg/kg, after one week at 120 mg/kg): increased weight gain
- percent liver to body weight (obese female Zucker rats [2]; after two weeks, doses 12, 40, 120 mg/kg (FIG. 16)): reduced at all doses
